Reference: patent US8497385B2, “Bryostatin analogues, synthetic methods and uses” (The Board of Trustees of the Leland Stanford Junior …, priority 2007, dated 2013)

What was measured:
COLO 205 = experiment: NCI growth inhibition, COLO 205 (Colon); format: cell-based, human
UACC-62 = experiment: NCI growth inhibition, UACC-62 (Melanoma); format: cell-based, human
TK-10 = experiment: NCI growth inhibition, TK-10 (Renal); format: cell-based, human
MOLT-4 = experiment: NCI growth inhibition, MOLT-4 (Leukemia); format: cell-based, human
UACC-257 = experiment: NCI growth inhibition, UACC-257 (Melanoma); format: cell-based, human
SN12C = experiment: NCI growth inhibition, SN12C (Renal); format: cell-based, human
SK-MEL-2 = experiment: NCI growth inhibition, SK-MEL-2 (Melanoma); format: cell-based, human
MDA-MB-231/ATCC = experiment: NCI growth inhibition, MDA-MB-231/ATCC (Breast); format: cell-based, human
SNB-19 = experiment: NCI growth inhibition, SNB-19 (CNS); format: cell-based, human
HOP-92 = experiment: NCI growth inhibition, HOP-92 (NSC Lung); format: cell-based, human
ACHN = experiment: NCI growth inhibition, ACHN (Renal); format: cell-based, human
HOP-62 = experiment: NCI growth inhibition, HOP-62 (NSC Lung); format: cell-based, human
OVCAR-8 = experiment: NCI growth inhibition, OVCAR-8 (Ovarian); format: cell-based, human
KM12 = experiment: NCI growth inhibition, KM12 (Colon); format: cell-based, human
SF-295 = experiment: NCI growth inhibition, SF-295 (CNS); format: cell-based, human
EKVX = experiment: NCI growth inhibition, EKVX (NSC Lung); format: cell-based, human
HS 578T = experiment: NCI growth inhibition, HS 578T (Breast); format: cell-based, human
HCC-2998 = experiment: NCI growth inhibition, HCC-2998 (Colon); format: cell-based, human
CAKI-1 = experiment: NCI growth inhibition, CAKI-1 (Renal); format: cell-based, human
SK-MEL-5 = experiment: NCI growth inhibition, SK-MEL-5 (Melanoma); format: cell-based, human
MI4 = experiment: NCI growth inhibition, MI4 (Melanoma); format: cell-based, human
NCI/ADR-RES = experiment: NCI growth inhibition, NCI/ADR-RES (Breast); format: cell-based, human
NCI-H460 = experiment: NCI growth inhibition, NCI-H460 (NSC Lung); format: cell-based, human
[1] = tested on: NCl human cancer cell-lines; experiment: In vitro inhibition of growth in NCI human cancer cell lines, all cell groups; format: cell-based; conditions: all cell groups tested
LOX IMVI = experiment: NCI growth inhibition, LOX IMVI (Melanoma); format: cell-based, human

Q: What does the source list for `CCCCCCCC(=O)OC1C(=CC(=O)OC)CC2CC(CO)OC(=O)CC(O)CC3CCCC(CC4CCOC(C=CC(C)(C)C1(O)O2)O4)O3` (stereo not drawn) [Formula IIa (702.1)]?
A: Difference of GI50 (log), Desmethyl vs Bryo-1 (COLO 205; COLO 205): −1.68; GI50 (COLO 205; COLO 205, Colon): −7.08 log of molar concentration; Difference of GI50 (log), Desmethyl vs Bryo-1 (UACC-62; UACC-62): 0.19; GI50 (UACC-62; UACC-62, Melanoma): −5.11 log of molar concentration; Difference of GI50 (log), Desmethyl vs Bryo-1 (TK-10; TK-10): −2.03; GI50 (TK-10; TK-10, Renal): −7.03 log of molar concentration; more active than bryostatin-1 (TK-10; TK-10, Renal): more than 2 orders of magnitude; Difference of GI50 (log), Desmethyl vs Bryo-1 (MOLT-4; MOLT-4): −2.50; GI50 (MOLT-4; MOLT-4, Leukemia): <−8.0 log of molar concentration; more active than bryostatin-1 (MOLT-4; MOLT-4, Leukemia): more than 2 orders of magnitude; Difference of GI50 (log), Desmethyl vs Bryo-1 (UACC-257; UACC-257): −0.03; GI50 (UACC-257; UACC-257, Melanoma): −5.13 log of molar concentration; Difference of GI50 (log), Desmethyl vs Bryo-1 (SN12C): −0.49; GI50 (SN12C; Renal): −5.59 log of molar concentration; Difference of GI50 (log), Desmethyl vs Bryo-1 (SK-MEL-2; SK-MEL-2): 0.18; GI50 (SK-MEL-2; SK-MEL-2, Melanoma): −5.02 log of molar concentration; Difference of GI50 (log), Desmethyl vs Bryo-1 (MDA-MB-231/ATCC): −0.49; GI50 (MDA-MB-231/ATCC; Breast): −5.69 log of molar concentration; Difference of GI50 (log), Desmethyl vs Bryo-1 (SNB-19; SNB-19): −0.20; GI50 (SNB-19; SNB-19, CNS): −5.2 log of molar concentration; Difference of GI50 (log), Desmethyl vs Bryo-1 (HOP-92; HOP-92): 0.63; GI50 (HOP-92; HOP-92, NSC Lung): −4.67 log of molar concentration; Difference of GI50 (log), Desmethyl vs Bryo-1 (ACHN): −0.44; GI50 (ACHN; Renal): −5.94 log of molar concentration; GI50 (HOP-62): −4.79 log of molar concentration; Difference of GI50 (log), Desmethyl vs Bryo-1 (OVCAR-8; OVCAR-8): 0.33; GI50 (OVCAR-8; OVCAR-8, Ovarian): −4.77 log of molar concentration; Difference of GI50 (log), Desmethyl vs Bryo-1 (KM12; KM12): −0.14; GI50 (KM12; KM12, Colon): −5.34 log of molar concentration; Difference of GI50 (log), Desmethyl vs Bryo-1 (SF-295; SF-295): −0.85; GI50 (SF-295; SF-295, CNS): −6.05 log of molar concentration; Difference of GI50 (log), Desmethyl vs Bryo-1 (EKVX): −0.28; GI50 (EKVX; NSC Lung): −5.58 log of molar concentration; Difference of GI50 (log), Desmethyl vs Bryo-1 (HS 578T): 0.02; GI50 (HS 578T; Breast): −5.18 log of molar concentration; Difference of GI50 (log), Desmethyl vs Bryo-1 (HCC-2998; HCC-2998): −2.24; GI50 (HCC-2998; HCC-2998, Colon): −7.54 log of molar concentration; more active than bryostatin-1 (HCC-2998; HCC-2998, Colon): more than 2 orders of magnitude; Difference of GI50 (log), Desmethyl vs Bryo-1 (CAKI-1; CAKI-1): −0.30; GI50 (CAKI-1; CAKI-1, Renal): −5.7 log of molar concentration; Difference of GI50 (log), Desmethyl vs Bryo-1 (SK-MEL-5; SK-MEL-5): −0.73; GI50 (SK-MEL-5; SK-MEL-5, Melanoma): −6.43 log of molar concentration; Difference of GI50 (log), Desmethyl vs Bryo-1 (MI4; MI4): −0.26; GI50 (MI4; MI4, Melanoma): −5.26 log of molar concentration; GI50 (NCI/ADR-RES): −4.74 log of molar concentration; Difference of GI50 (log), Desmethyl vs Bryo-1 (NCI-H460; NCI-H460): −2.40; GI50 (NCI-H460; NCI-H460, NSC Lung): <−8 log of molar concentration; more active than bryostatin-1 (NCI-H460; NCI-H460, NSC Lung): more than 2 orders of magnitude; potency relative to bryostatin-1, on average [1]: at least as potent, on average, as bryostatin-1; Difference of GI50 (log), Desmethyl vs Bryo-1 (LOX IMVI): −0.37; GI50 (LOX IMVI; Melanoma): −5.47 log of molar concentration
